Reference: patent publication US9789096B2, “Methods and compositions for selective and targeted cancer therapy” (Board of Regents of the University of Texas System, priority 2013, dated 2017)
Read-outs that look alike come from different tables or passages of the source.

Experiments:
Type in all cases: cell-based, human
HCC44 = assay: Cell viability dose-response, HCC44; settings: for AC50: 12-point dose-response starting at 50 micromolar
Method: (§1) FIG. 6A. […] Cell viability is plotted vs. compound concentration. Compound was added to cells plated at 15% confluence in 96-well plates in RPMI-1640 media supplemented with 5% Fetal Bovine Serum and 2 mM L-Glutamine. After 4 days of incubation, ATP levels were measured using Cell Titer Glo (Promega). Data are presented as the average of 2 replicates ±SEM.
(§2) Selectivity may be measured by the half maximal inhibitory concentration (IC50), which, as used herein, is a measure of the effectiveness of a compound in killing cells. This quantitative measure indicates how much of a particular compound is needed to kill a particular cell population by half (e.g., as indicated by the amount of ATP). […] The IC50 can be determined by constructing a dose-response curve. The lower the IC50, the higher the potency, and the greater the difference between IC50 values for different cell lines (e.g., sensitive lines vs. insensitive lines, and sensitive lines vs. normal lines) the greater the selectivity. […]
(§3) With this information, we synthesized and tested a series of small molecules derived in conception from the oxalamide and chromone scaffold including N-acyl ureas, as shown in Tables 6-8. Each compound was tested in a 12-point dose-response study starting at 50 micromolar and decreasing in 3-fold increments to sub-nanomolar concentrations, in duplicate. Additionally, one or more additional cell line was tested in the same way.

H2122 = assay: Cell viability dose-response, H2122; settings: for AC50: 12-point dose-response starting at 50 micromolar
In short: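 Viability read as total ATP (Cell Titer Glo) following 4 days' compound exposure, with IC50 derived from dose-response curves. Duplicate 12-point series, top concentration 50 micromolar with 3-fold steps, on cells seeded at 15% confluence in RPMI-1640, 5% FBS, 2 mM L-glutamine.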

H2009 = assay: Cell viability dose-response, H2009; settings: for IC50: NCI-H2009
Method: as §1, §2, §3

H2073 = assay: Cell viability dose-response, H2073; settings: Homo sapiens, NCI-H2073, 12-point dose-response starting at 50 micromolar, 3-fold increments, in duplicate; read-out: toxicity data, H2073
Method: as §1, §2, §3

[1] = Homo sapiens, HCC44, Tables 3 and 4, read-out: IC50 (uM) vs indicated non-small cell lung cancer cell line HCC44
[2] = Homo sapiens, NCI-H2122, Tables 3 and 4, read-out: IC50 (uM) vs indicated non-small cell lung cancer cell line H2122
[3] = Homo sapiens, Tables 3 and 4, read-out: IC50 (uM) vs indicated non-small cell lung cancer cell line H2009
[4] = Homo sapiens, NCI-H2122, 12-point dose-response starting at 50 micromolar, 3-fold increments, in duplicate, read-out: toxicity data, H2122
[5] = Homo sapiens, HCC44, 12-point dose-response starting at 50 micromolar, 3-fold increments, in duplicate, read-out: toxicity data, HCC44
[6] = Homo sapiens, 12-point dose-response starting at 50 micromolar, 3-fold increments, in duplicate, read-out: toxicity data, H2009
[7] = Homo sapiens, NCI-H2122, Table 9, competitor, read-out: IC50 to H2122 cells
[8] = Homo sapiens, NCI-H2122, Table 8
[9] = Homo sapiens, NCI-H2009, Table 8, 12-point dose-response starting at 50 micromolar

SMILES	IC50 (H2122; [4]) [µM]	IC50 (HCC44; [5]) [µM]	IC50 (H2009; [6]) [µM]	also measured
O=C(Nc1nccs1)c1ccc(C(=O)c2ccccc2)cc1 [SW208771-1]				IC50 (HCC44; [1]): 8.43 µM; IC50 (H2122; [2]): 32.9 µM; IC50 (H2009; [3]): 49.5 µM
COc1ccc(CCNC(=O)C(=O)Nc2ccc(Oc3ccc(Br)cc3)cc2)cc1 [SW209075-1]	0.029			IC50 (H2073): 8.07 µM
C#CCOc1ccc(C(=O)c2ccc(NC(=O)C(=O)NC(C)Cc3ccc(OC)cc3)cc2)cc1 (stereo not shown) [SW208217-1-A]	≥ 49.5	≥ 49.5	12.3	
COc1ccc(C(=O)Nc2ccc(C(=O)c3ccccc3)cc2)cc1 [SW208465-1-A]		≥ 49.5	≥ 49.5	IC50 (H2122; Homo sapiens, NCI-H2122, read-out: toxicity data, H2122): ≥ 49.5 µM
C#CCOc1ccc(C(=O)c2ccc(NC(=O)C(=O)NCC(C)c3ccc(OC)cc3)cc2)cc1 (stereo not shown) [SW208219-1-A]	≥ 49.5	≥ 49.5	≥ 49.5	
COc1ccc(CCNC(=O)NC(=O)c2ccc(C(=O)Nc3ccc(OC)cc3)cc2)cc1 [SW208411-1-A]	≥ 49.5	≥ 49.5	≥ 49.5	
O=C(NCCc1ccc(O)cc1)NC(=O)c1ccc(OCc2ccccc2)cc1 [SW208524-1-A]	0.02	0.01	0.01	
COc1ccc(CCNC(=O)NC(=O)c2ccc(-c3cc4ccccc4c4ccccc34)cc2)cc1 [SW208391-1-A]	≥ 49.5	≥ 49.5	7.16	
COc1ccc(CCCNC(=O)c2ccc(Cl)cc2)cc1 [SW208462-1-A]	≥ 49.5	≥ 49.5	≥ 49.5	
O=C(Nc1nc2ccccc2[nH]1)c1ccc(C(=O)c2ccccc2)cc1 [SW208653-1]				IC50 (HCC44; [1]): 3.63 µM; IC50 (H2122; [7]): 0.0383 µM; IC50 (H2122; [2]): 0.042 µM; IC50 (H2009; [3]): 1.8 µM
COc1ccc(CCCC(=O)Nc2ccc(C(=O)c3ccccc3)cc2)cc1 [SW208470-1-A]	≥ 49.5	34.8	34.4	
O=c1ccoc2cc(OCc3cnn(-c4ccccc4)c3)ccc12 [SW 208629-1]				AC50 (HCC44; Homo sapiens, HCC44, Table 8): 49.5 µM; AC50 (H2122; [8]): ≥ 49.5 µM; AC50 (H2009; [9]): 49.5 µM
O=C(Nc1ncc(Cc2ccccc2)s1)c1ccc(C(=O)c2ccccc2)cc1 [SW208834]				IC50 (HCC44; [1]): 49.5 µM; IC50 (H2122; [2]): 3.55 µM; IC50 (H2009; [3]): 16.5 µM
O=c1c(Oc2cccc(Cl)c2)coc2cc(OCc3cnn(-c4ccccc4)c3)ccc12 [SW 208594-1]				AC50 (HCC44; Homo sapiens, HCC44, Table 8): 0.08 µM; AC50 (H2122; [8]): 0.22 µM; AC50 (H2009; [9]): 16.5 µM
O=c1c(-c2cc(C(F)(F)F)cc(C(F)(F)F)c2)coc2cc(OCc3cnn(-c4ccccc4)c3)ccc12 [SW208763-1]				AC50 (HCC44; Homo sapiens, HCC44, Table 8): 1.36 µM; AC50 (H2122; [8]): 0.08 µM; AC50 (H2009; [9]): 3.26 µM
O=c1c(Oc2ccccc2F)coc2cc(OCc3cnn(-c4ccc(F)cc4)c3)ccc12 [SW208468]				AC50 (HCC44; Homo sapiens, HCC44, Table 8): 49.5 µM; AC50 (H2122; [8]): ≥ 49.5 µM; AC50 (H2009; [9]): 22.3 µM
COc1ccc(CCNC(=O)NC(=O)c2ccc(C(=O)c3ccc(OC)cc3)cc2)cc1 [SW208220-1-A]	≥ 49.5	≥ 49.5	≥ 49.5	IC50 (H2122; [7]): 0.8 µM
COc1ccc(CCNC(=O)NC(=O)c2ccc(C(=O)Nc3ccccc3)cc2)cc1 [SW208398-1-A]	0.36	≥ 49.5	16.5	
O=c1c(Oc2ccccc2F)coc2cc(OCc3cnn(-c4ccccc4)c3)ccc12 [SW043139-2-A]				AC50 (HCC44; Table 8): 49.5 µM; AC50 (H2122; Table 8): 0.292 µM; AC50 (H2009; Table 8, 12-point dose-response starting at 50 micromolar): 15.9 µM
COc1ccc(CCN(C)C(=O)NC(=O)c2ccc(C(=O)c3ccccc3)cc2)cc1 [SW208461-1-A]	8.67	≥ 49.5	≥ 49.5	
COc1ccc2nc(NC(=O)c3ccc(C(=O)c4ccccc4)cc3)sc2n1 [SW208233-1]				IC50 (HCC44; [1]): 49.5 µM; IC50 (H2122; [2]): ≥ 49.5 µM; IC50 (H2009; [3]): 49.5 µM
COC(=O)c1ccc(C(=O)NC(=O)NCCc2ccc(OC)cc2)cc1 [SW208390-1-A]	≥ 49.5	≥ 49.5	≥ 49.5	
COc1ccc(-c2coc3cc(OCc4cnn(-c5ccccc5)c4)ccc3c2=O)cc1 [SW208759-1]				AC50 (HCC44; Homo sapiens, HCC44, Table 8): 49.5 µM; AC50 (H2122; [8]): ≥ 49.5 µM; AC50 (H2009; [9]): 49.5 µM
